In PubChem BioAssay (NCI):
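Assay format: 96-well plates, 48-hour exposure. At the GI50, growth is halved. TGI: concentration producing complete growth inhibition.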

What was measured:
Assay in all cases: NCI-60 cell line screen, 48 h
786-0 renal = system: 786-0 renal
A498 renal = system: A498 renal
A549 NSCLC = system: A549 NSCLC
ACHN renal = system: ACHN renal
BT-549 breast = system: BT-549 breast
CAKI-1 renal = system: CAKI-1 renal
CCRF-CEM leukemia = system: CCRF-CEM leukemia
DU-145 prostate = system: DU-145 prostate
EKVX NSCLC = system: EKVX NSCLC
HCC-2998 colon = system: HCC-2998 colon
HCT-116 colon = system: HCT-116 colon
HCT-15 colon = system: HCT-15 colon
HL-60(TB) leukemia = system: HL-60(TB) leukemia
HOP-62 NSCLC = system: HOP-62 NSCLC
HS 578T breast = system: HS 578T breast
HT29 colon = system: HT29 colon
IGROV1 ovarian = system: IGROV1 ovarian
K-562 leukemia = system: K-562 leukemia
KM12 colon = system: KM12 colon
LOX IMVI melanoma = system: LOX IMVI melanoma
M14 melanoma = system: M14 melanoma
MALME-3M melanoma = system: MALME-3M melanoma
MCF7 breast = system: MCF7 breast
MDA-MB-231 breast = system: MDA-MB-231 breast
MDA-MB-435 = system: MDA-MB-435
MOLT-4 leukemia = system: MOLT-4 leukemia
NCI-H226 lung = system: NCI-H226 lung
NCI-H23 lung = system: NCI-H23 lung
NCI-H460 lung = system: NCI-H460 lung
NCI-H522 lung = system: NCI-H522 lung
NCI/ADR-RES ovarian = system: NCI/ADR-RES ovarian
OVCAR-3 ovarian = system: OVCAR-3 ovarian
OVCAR-4 ovarian = system: OVCAR-4 ovarian
OVCAR-5 ovarian = system: OVCAR-5 ovarian
OVCAR-8 ovarian = system: OVCAR-8 ovarian
PC-3 prostate = system: PC-3 prostate
RPMI-8226 leukemia = system: RPMI-8226 leukemia
RXF 393 renal = system: RXF 393 renal
SF-268 CNS = system: SF-268 CNS
SF-295 CNS = system: SF-295 CNS
SF-539 CNS = system: SF-539 CNS
SK-MEL-2 melanoma = system: SK-MEL-2 melanoma
SK-MEL-28 melanoma = system: SK-MEL-28 melanoma
SK-OV-3 ovarian = system: SK-OV-3 ovarian
SN12C renal = system: SN12C renal
SNB-19 CNS = system: SNB-19 CNS
SNB-75 CNS = system: SNB-75 CNS
SR leukemia = system: SR leukemia
SW-620 colon = system: SW-620 colon
T-47D breast = system: T-47D breast
TK-10 renal = system: TK-10 renal
U251 CNS = system: U251 CNS
UACC-257 melanoma = system: UACC-257 melanoma
UACC-62 melanoma = system: UACC-62 melanoma
UO-31 renal = system: UO-31 renal

Structure (SMILES): NC1=CC(=O)c2nc3ccccc3c3ccnc1c23
- GI50 (786-0 renal): 7.49 µM
- TGI (786-0 renal): > 66.5 µM
- GI50 (A498 renal): 6.19 µM
- TGI (A498 renal): 40.8 µM
- GI50 (A549 NSCLC): 0.132 µM
- TGI (A549 NSCLC): > 21.6 µM
- GI50 (ACHN renal): 3.15 µM
- TGI (ACHN renal): 33 µM
- GI50 (BT-549 breast): 6.9 µM
- TGI (BT-549 breast): 27.9 µM
- GI50 (CAKI-1 renal): 4.98 µM
- TGI (CAKI-1 renal): > 95.6 µM
- GI50 (CCRF-CEM leukemia): 11.6 µM
- TGI (CCRF-CEM leukemia): > 100 µM
- GI50 (DU-145 prostate): 0.495 µM
- TGI (DU-145 prostate): > 44.6 µM
- GI50 (EKVX NSCLC): 9.14 µM
- TGI (EKVX NSCLC): 29.4 µM
- GI50 (HCC-2998 colon): 0.497 µM
- TGI (HCC-2998 colon): 11.5 µM
- GI50 (HCT-116 colon): 3.99 µM
- TGI (HCT-116 colon): > 100 µM
- GI50 (HCT-15 colon): 0.622 µM
- TGI (HCT-15 colon): > 100 µM
- GI50 (HL-60(TB) leukemia): 6.38 µM
- TGI (HL-60(TB) leukemia): > 58.8 µM
- GI50 (HOP-62 NSCLC): 4.47 µM
- TGI (HOP-62 NSCLC): > 45.1 µM
- GI50 (HS 578T breast): 0.766 µM
- TGI (HS 578T breast): 5.73 µM
- GI50 (HT29 colon): 3.52 µM
- TGI (HT29 colon): 21.2 µM
- GI50 (IGROV1 ovarian): 1.57 µM
- TGI (IGROV1 ovarian): 6.33 µM
- GI50 (K-562 leukemia): 4.26 µM
- TGI (K-562 leukemia): > 100 µM
- GI50 (KM12 colon): 3.05 µM
- TGI (KM12 colon): > 65.9 µM
- GI50 (LOX IMVI melanoma): 0.219 µM
- TGI (LOX IMVI melanoma): 4.22 µM
- GI50 (M14 melanoma): 0.342 µM
- TGI (M14 melanoma): 26.7 µM
- GI50 (MALME-3M melanoma): 0.0856 µM
- TGI (MALME-3M melanoma): 0.556 µM
- GI50 (MCF7 breast): 1.29 µM
- TGI (MCF7 breast): > 100 µM
- GI50 (MDA-MB-231 breast): 16.9 µM
- TGI (MDA-MB-231 breast): > 70.1 µM
- GI50 (MDA-MB-435): 1.22 µM
- TGI (MDA-MB-435): 19 µM
- GI50 (MOLT-4 leukemia): 3.21 µM
- TGI (MOLT-4 leukemia): > 100 µM
- GI50 (NCI-H226 lung): 0.937 µM
- TGI (NCI-H226 lung): > 32.6 µM
- GI50 (NCI-H23 lung): 0.273 µM
- TGI (NCI-H23 lung): 22.8 µM
- GI50 (NCI-H460 lung): 0.0908 µM
- TGI (NCI-H460 lung): 4.6 µM
- GI50 (NCI-H522 lung): 2.48 µM
- TGI (NCI-H522 lung): 17.3 µM
- GI50 (NCI/ADR-RES ovarian): 7.33 µM
- TGI (NCI/ADR-RES ovarian): 69.4 µM
- GI50 (OVCAR-3 ovarian): 3.6 µM
- TGI (OVCAR-3 ovarian): > 51.9 µM
- GI50 (OVCAR-4 ovarian): 7.7 µM
- TGI (OVCAR-4 ovarian): > 59 µM
- GI50 (OVCAR-5 ovarian): 13.8 µM
- TGI (OVCAR-5 ovarian): 62 µM
- GI50 (OVCAR-8 ovarian): 2.39 µM
- TGI (OVCAR-8 ovarian): 18.5 µM
- GI50 (PC-3 prostate): 6.53 µM
- TGI (PC-3 prostate): > 48 µM
- GI50 (RPMI-8226 leukemia): 5.18 µM
- TGI (RPMI-8226 leukemia): > 100 µM
- GI50 (RXF 393 renal): 4.78 µM
- TGI (RXF 393 renal): 17.2 µM
- GI50 (SF-268 CNS): 4.26 µM
- TGI (SF-268 CNS): 22.1 µM
- GI50 (SF-295 CNS): 0.19 µM
- TGI (SF-295 CNS): > 39.5 µM
- GI50 (SF-539 CNS): 3.99 µM
- TGI (SF-539 CNS): 57.1 µM
- GI50 (SK-MEL-2 melanoma): 9.45 µM
- TGI (SK-MEL-2 melanoma): 32.1 µM
- GI50 (SK-MEL-28 melanoma): 11.8 µM
- TGI (SK-MEL-28 melanoma): 32 µM
- GI50 (SK-OV-3 ovarian): 12 µM
- TGI (SK-OV-3 ovarian): > 52.9 µM
- GI50 (SN12C renal): 5.59 µM
- TGI (SN12C renal): > 74.1 µM
- GI50 (SNB-19 CNS): 3.06 µM
- TGI (SNB-19 CNS): > 93.2 µM
- GI50 (SNB-75 CNS): 0.552 µM
- TGI (SNB-75 CNS): 23.5 µM
- GI50 (SR leukemia): 2.47 µM
- TGI (SR leukemia): > 100 µM
- GI50 (SW-620 colon): 3.14 µM
- TGI (SW-620 colon): > 100 µM
- GI50 (T-47D breast): 7.85 µM
- TGI (T-47D breast): > 67.4 µM
- GI50 (TK-10 renal): 6.54 µM
- TGI (TK-10 renal): 42.5 µM
- GI50 (U251 CNS): 2.17 µM
- TGI (U251 CNS): > 45.2 µM
- GI50 (UACC-257 melanoma): 2.37 µM
- TGI (UACC-257 melanoma): 20 µM
- GI50 (UACC-62 melanoma): 2.38 µM
- TGI (UACC-62 melanoma): 17.2 µM
- GI50 (UO-31 renal): 3.49 µM
- TGI (UO-31 renal): > 56.4 µM
